Results from paper PMC5466365 (Journal of the American Chemical Society, 2016).

Assays:
Type in all cases: biochemical
MeHNL [1] = target: T1, MeHNL (Manihot esculenta, UniProt P52705); conditions: 5 mM citrate phosphate pH 5
HbHNL [2] = target: T2, HbHNL (Hevea brasiliensis, UniProt P52704); conditions: 5 mM citrate phosphate pH 5
HbHNL [3] = target: T2, HbHNL; experiment: benzaldehyde release, A280; conditions: 50 mM citrate pH 5.0
MeHNL [4] = target: T1, MeHNL; experiment: benzaldehyde release, A280; conditions: 50 mM citrate pH 5.0

T2 sequence (P52704 whole entry): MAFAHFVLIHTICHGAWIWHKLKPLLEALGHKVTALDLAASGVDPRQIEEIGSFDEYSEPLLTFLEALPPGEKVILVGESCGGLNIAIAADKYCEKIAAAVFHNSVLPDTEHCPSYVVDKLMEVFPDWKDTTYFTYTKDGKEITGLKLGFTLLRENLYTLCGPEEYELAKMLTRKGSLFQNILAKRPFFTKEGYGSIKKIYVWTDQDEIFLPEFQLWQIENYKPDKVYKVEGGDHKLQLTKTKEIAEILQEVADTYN
T1 sequence (P52705 2-258): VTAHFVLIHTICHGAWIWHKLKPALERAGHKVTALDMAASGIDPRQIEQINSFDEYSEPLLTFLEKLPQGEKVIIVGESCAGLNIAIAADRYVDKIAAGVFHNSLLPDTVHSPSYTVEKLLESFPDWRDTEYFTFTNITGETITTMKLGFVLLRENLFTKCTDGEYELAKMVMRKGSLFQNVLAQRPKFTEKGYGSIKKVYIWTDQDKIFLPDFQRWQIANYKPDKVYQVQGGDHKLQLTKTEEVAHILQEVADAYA

Structure (SMILES) | HCN release, modified König reaction (MeHNL [1]) | HCN release, modified König reaction (HbHNL [2]) | benzaldehyde release, A280 (HbHNL [3]) | benzaldehyde release, A280 (MeHNL [4])
CC(C)(O)C#N [acetone cyanohydrin] | The best substrate is the natural one, acetone cyanohydrin | The best substrate is the natural one, acetone cyanohydrin | – | –
N#CC(O)c1ccccc1 (racemic) [mandelonitrile] | – | – | They also efficiently cleaved their unnatural substrate mandelonitrile | They also efficiently cleaved their unnatural substrate mandelonitrile
